Experimental data: patent publication US10463594B2, “Cosmetic composition” (AJINOMOTO CO., INC., priority 2012, dated 2019)
Each block holds one molecule with its values, some of them ahead of it.

How the values were obtained:
hair [1] = test: Measurement of swelling degree of hair; conditions: 100×(D1−D0)/D0 of hair diameter
Protocol: Hair was immobilized in a concave part of a glass slide for biochemical count having a depth of the concave part of 200 μm (manufactured by NIPPON Genetics Co, Ltd.), a cover glass was placed on the glass slide to cover the concave part, the diameter of the hair was measured 10-14 times, and the mean thereof was calculated (D0). Thereafter, a sample was injected from the clearance between the cover glass and the glass slide, and left standing for 3 min or 5 min. The diameter of the hair was measured 10-14 times, and the mean was calculated (D1).
As the sample, ion exchange water, phosphate buffer (pH 6.2), protein-glutaminase solution (6.2 mg/mL, pH 6.2) and 1% aqueous ammonia (pH 11.8) were used. The swelling degree was calculated from the measured diameters of the hair (D0 and D1) according to the following formula. swelling degree (%)=100×(D1−D0)/D0

hair [2] = test: Observation of hair damage (microscopic images ×400); conditions: 3 min after injection of sample
Protocol: In the test of the above-mentioned 1, the condition of the hair 3 min after injection of ion exchange water, protein-glutaminase solution, or 1% aqueous ammonia was observed.

perm-treated hair = test: Quantification of free ammonia produced by reaction of protein-glutaminase with perm-treated hair; type: biochemical, human; conditions: 37° C., 1 hr
Protocol: Hair of Japanese women in their 20's was perm-treated and used as an experiment sample. The perm treatment included 1) immersing the hair in first perm liquid at 33° C. for 15 min and rinsing the first liquid with tap water at 35-40° C., and 2) immersing the hair in second perm liquid at 33° C. for 15 min and sufficiently rinsing same with tap water at 35-40° C. The continuous operation of 1) and 2) was repeated 4 times, and the hair was washed with 15% sodium laureth sulfate (EMAL E27C; Kao Corporation) and sufficiently rinsed with tap water at 35-40° C. The hair was immersed in a buffer, and treated with occasional stirring at room temperature for 10 min. The hair was combed out, hung while avoiding overlapped hair, and dried in a thermo-hygrostat room (23° C., 40% R.H.).
Using an Ammonia test kit (manufactured by Wako Pure Chemical Industries, Ltd.), the amount of free ammonia produced by reaction of protein-glutaminase with the above-mentioned perm-treated hair was quantified.
The protein-glutaminase solution (2 ml) at a concentration shown in Table 4 was added to a bundle of the above-mentioned perm-treated hair (0.25 g), and the amount of ammonia in a sample after reaction at 37° C. for 1 hr was measured. The amount of ammonia produced was shown as a value after subtraction of the amount of ammonia produced without addition of protein-glutaminase (Comparative Example 4).

[3] = system: 3D cultured human skin model: TESTSKIN LSE-high; test: Permeability of FITC-labeled Gly-Gly-Gly to artificial cultured skin; type: cell-based; conditions: protein-glutaminase solution 4 mg/ml, 100 μl, 37° C. 30 min before peptide; measured after 2, 5, 20 hr; versus phosphate buffer (−)
Protocol: Using glycylglycylglycine (hereinafter indicated as “Gly-Gly-Gly”) (manufactured by PEPTIDE INSTITUTE, INC.) as a peptide to be evaluated for skin permeability, the permeability of Gly-Gly-Gly to commercially available artificial cultured skin (3D cultured human skin model: TESTSKIN LSE-high, manufactured by Toyobo Co., Ltd.) was evaluated. Gly-Gly-Gly was labeled with fluorescein by using fluorescein isothiocyanate (FITC-I, manufactured by Chemical-Dojin Co., Ltd.) to enable highly sensitive detection.
The cultured skin is cultured on a polycarbonate membrane on the bottom of a transwell, and set on a 6-well assay plate. […] The permeability was evaluated by measuring the amount of FITC-labeled Gly-Gly-Gly that permeated the cultured skin to move into phosphate buffer (−).
First, a protein-glutaminase solution (4 mg/ml, 100 μl) was added to the top of the cultured skin and incubated at 37° C. for 30 min, after which a FITC-labeled Gly-Gly-Gly sample (100 μl) was added to the top of the cultured skin. After 2, 5, and 20 hr, the amount of FITC-labeled Gly-Gly-Gly that permeated the cultured skin and moved into phosphate buffer (−) was measured. […] The fluorescence intensity was measured under the conditions of exciting wavelength 492 nm and fluorescence wavelength 520 nm. The fluorescence intensity was measured using platereader SpectraMaxM2 (manufactured by Molecular Devices, LLC.).

Molecule: N [Comparative Example 3, 1% aqueous ammonia]
- swelling degree (%) after 3 min (hair [1]; hair left standing in sample for 3 min): 11.1%
- swelling degree (%) after 5 min (hair [1]; hair left standing in sample for 5 min): 11.3%
- condition of the hair (hair damage) (hair [2]): cuticles on the hair surface were lifted

- concentration of protein-glutaminase solution at which it reacted with perm-treated hair (perm-treated hair): not less than 0.01 mg/ml
B1: protein-glutaminase: protein-glutaminase of Chryseobacterium proteolyticum, secretory-expressed in Corynebacterium glutamicum, activated by protease, purified, dissolved in phosphate buffer (protein, listed as Chryseobacterium proteolyticum)
chain: LASVIPDVATLNSLFNQIKNQSCGTSTASSPCITFRYPVDGCYARAHKMRQILMNNGYDCEKQFVYGNLKASTGTCCVAWSYHVAILVSYKNASGVTEKRIIDPSLFSSGPVTDTAWRNACVNTSCGSASVSSYANTAGNVYYRSPSNSYLYDNNLINTNCVLTKFSLLSGCSPSPAPDVSSCGF
- permeability of FITC-labeled Gly-Gly-Gly through cultured skin (fluorescence intensity) [3]: improved permeability of peptide
